According to EP2876156A1 (COMMISSARIAT A L'ENERGIE ATOMIQUE ET AUX ENERGIES …, priority 2013, dated 2015):
Read-outs that look alike come from different tables or passages of the source.

Columns and labels:
Format in all cases: biochemical
ENZ2 SEQ ID NO:2 = target: T1, ENZ2 SEQ ID NO:2 (Flavobacterium johnsoniae, UniProt A5FF23)
T1 construct: His6 (hexahistidine, inserted after the initial methionine) (N); made in house; host or cells: E. coli BL21(DE3) plysE
T1 sequence (A5FF23 1-370): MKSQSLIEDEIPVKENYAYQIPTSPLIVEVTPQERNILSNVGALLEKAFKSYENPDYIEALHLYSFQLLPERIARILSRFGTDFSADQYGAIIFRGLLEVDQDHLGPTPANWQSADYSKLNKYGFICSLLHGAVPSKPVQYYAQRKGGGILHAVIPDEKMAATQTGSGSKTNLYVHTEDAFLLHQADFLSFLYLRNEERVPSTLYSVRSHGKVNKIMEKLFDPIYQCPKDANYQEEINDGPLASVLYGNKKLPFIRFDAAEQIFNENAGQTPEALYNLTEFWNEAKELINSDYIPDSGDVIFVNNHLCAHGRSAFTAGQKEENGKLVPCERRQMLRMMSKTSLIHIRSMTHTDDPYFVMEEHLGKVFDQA
Description: (§1) Enzymatic reaction medium (0.2 µmole, leq.), borate buffer 0,2M pH 7.7 (80 µL) and Fmoc-Cl solution7.5 mM in acetone (100 µL, 0.75 µmole, 3.75 eq) were hand shaked in a closed 1.50 mL eppendorf for one minute. The aqueous layer was extracted with petroleum ether (3*1 mL) to eliminate excess of Fmoc-Cl. 70 µL of the aqueous phase were withdrawn, diluted with 70 µL of acetonitrile and injected into the HPLC. For substrates with two amine functions, 100 µL of Fmoc-Cl solution 15 mM were used.
(§2) Conditions for HPLC analysis: Atlantis® T3 (3 µm 4.5*150 mm) at 35°C with the gradient 50-86% eluent B (MeCN + 0.1% TFA) and eluent A (H2O + 0.1% TFA) in 20 min at 1 mL/min.
(§3) Enzymes (0.08 mg/mL) were screened against substrates (molar ratio α-ketoglutarate/substrate 15/10) in Hepes buffer 50 mM pH 7,5, with Mohr's salt at 1mM and without sodium ascorbate, at room temperature for three hours. The potential conversions of the substrates were determined by HPLC after Fmoc-Cl derivatization as section III here above.

ENZ3 SEQ ID NO:3 = target: T2, ENZ3 SEQ ID NO:3 (Chitinophaga pinensis, UniProt C7PLM6)
T2 construct: His6 (hexahistidine, inserted after the initial methionine) (N); made in house; host or cells: E. coli BL21(DE3) plysE
T2 sequence (C7PLM6 1-382): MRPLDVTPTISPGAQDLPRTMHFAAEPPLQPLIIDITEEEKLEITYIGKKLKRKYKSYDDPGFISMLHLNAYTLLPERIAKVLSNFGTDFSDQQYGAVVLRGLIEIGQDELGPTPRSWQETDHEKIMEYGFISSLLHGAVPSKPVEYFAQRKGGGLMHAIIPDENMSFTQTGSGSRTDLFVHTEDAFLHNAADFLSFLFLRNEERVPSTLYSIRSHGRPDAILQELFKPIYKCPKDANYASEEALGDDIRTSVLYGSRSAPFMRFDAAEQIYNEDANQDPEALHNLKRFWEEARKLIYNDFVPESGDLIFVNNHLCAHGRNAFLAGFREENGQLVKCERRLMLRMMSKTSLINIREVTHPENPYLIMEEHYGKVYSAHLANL
Description: as §1, §2, §3

ENZ1 SEQ ID N°1 = target: T3, ENZ1 SEQ ID N°1 (Catenulispora acidiphila, UniProt C7QJ42); experiment: Substrate selectivity screening of hydroxylase (conversion by HPLC after Fmoc-Cl derivatization)
T3 construct: His6 (hexahistidine, inserted after the initial methionine) (N); made in house; host or cells: E. coli BL21(DE3) plysE
T3 sequence (C7QJ42 1-358): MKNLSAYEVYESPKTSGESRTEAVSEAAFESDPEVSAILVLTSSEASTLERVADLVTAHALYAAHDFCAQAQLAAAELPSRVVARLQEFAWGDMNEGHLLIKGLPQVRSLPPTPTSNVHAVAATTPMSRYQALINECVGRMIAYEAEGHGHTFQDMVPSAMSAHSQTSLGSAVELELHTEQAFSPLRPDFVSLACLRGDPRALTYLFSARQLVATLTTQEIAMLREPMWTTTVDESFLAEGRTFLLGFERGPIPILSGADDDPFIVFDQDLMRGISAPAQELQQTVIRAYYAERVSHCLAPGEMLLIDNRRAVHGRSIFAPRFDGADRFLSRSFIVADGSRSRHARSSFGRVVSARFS
Description: as §1, §2, §3

ENZ4 SEQ ID NO:4 = target: T4, ENZ4 SEQ ID NO:4 (Catenulispora acidiphila, UniProt C7Q942); experiment: as above
T4 construct: His6 (hexahistidine, inserted after the initial methionine) (N); made in house; host or cells: E. coli BL21(DE3) plysE
T4 sequence (C7Q942 1-343): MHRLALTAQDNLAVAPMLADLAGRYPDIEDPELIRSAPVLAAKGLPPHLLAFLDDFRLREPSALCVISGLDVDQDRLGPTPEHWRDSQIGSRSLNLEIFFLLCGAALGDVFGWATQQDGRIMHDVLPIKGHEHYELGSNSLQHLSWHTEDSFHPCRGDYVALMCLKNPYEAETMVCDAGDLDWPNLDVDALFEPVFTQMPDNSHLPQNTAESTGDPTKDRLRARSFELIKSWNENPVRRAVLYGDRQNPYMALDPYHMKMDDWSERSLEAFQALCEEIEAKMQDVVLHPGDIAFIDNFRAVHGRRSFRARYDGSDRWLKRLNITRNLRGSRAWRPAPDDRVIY
Description: as §1, §2, §3

[1] = enzyme 0.08 mg/mL, molar ratio α-ketoglutarate/substrate 15/10, Hepes buffer 50 mM pH 7,5, Mohr's salt 1mM, without sodium ascorbate, room temperature, three hours

SMILES	potential conversions of the substrates, ENZ2 SEQ ID NO:2 (ENZ2 SEQ ID NO:2; [1])	potential conversions of the substrates, ENZ3 SEQ ID NO:3 (ENZ3 SEQ ID NO:3; [1])	potential conversions of the substrates, ENZ1 SEQ ID N°1 (ENZ1 SEQ ID N°1; [1])	potential conversions of the substrates, ENZ4 SEQ ID NO:4 (ENZ4 SEQ ID NO:4; [1])	potential conversions of the substrates, ENZ2 SEQ ID NO:2 (ENZ2 SEQ ID NO:2; pH 7)	potential conversions of the substrates, ENZ3 SEQ ID NO:3 (ENZ3 SEQ ID NO:3; pH 7)	potential conversions of the substrates, ENZ1 SEQ ID N°1 (ENZ1 SEQ ID N°1; pH 7)	potential conversions of the substrates, ENZ4 SEQ ID NO:4 (ENZ4 SEQ ID NO:4; pH 7)
NC(CCCC(=O)O)C(=O)O (stereo not drawn) [2-aminoadipic acid]	negative	negative	negative	negative				
NCCSC[C@H](N)C(=O)O [Thia-L-lysine]	positive	positive	negative	negative				
CNCCCC[C@H](N)C(=O)O [Nε-Me-L-lysine]	negative	negative	negative	negative				
CC(=O)N[C@@H](CCCNC(=N)N)C(=O)O [Nα-acetyl-L-arginine]	negative	negative	negative	negative				
COC(=O)[C@@H](N)CCCNC(=N)N [L-arginine methyl ester]	negative	negative	negative	negative				
NCCCC[C@H](NC(=O)[C@@H](N)CCCCN)C(=O)O [L-Lysil-L-lysine]	negative	negative	negative	negative				
COC(=O)[C@@H](N)CCCN [L-ornithine methyl ester]	negative	negative	negative	negative				
CC(=O)N[C@@H](CCCCN)C(=O)O [Nα-acetyl-L-lysine]	negative	negative	negative	negative				
N[C@H]1CCCCNC1=O [L-(-)-α-Amino-ε-caprolactam]	negative	negative	negative	negative				
NCCCC[C@@H](N)C(=O)O [D-lysine]	negative	negative	negative	negative				
NCCCCCC(=O)O [6-aminohexanoic acid]	negative	negative	negative	negative				
CC(=O)N[C@@H](CCCN)C(=O)O [Nα-acetyl-L-ornithine]	negative	negative	negative	negative				
N=C(N)NCCC[C@@H](N)C(=O)O [D-arginine]	negative	negative	negative	negative				
NC[C@H](O)CC[C@H](N)C(=O)O [(5R)- hydroxy-L-lysine]	positive	positive	positive	negative				
CCCCCC(N)C(=O)O (stereo not drawn) [2-aminoheptanoic acid]	negative	negative	negative	negative				
NCCC[C@H](O)[C@H](N)C(=O)O [(3S)- hydroxy-L-lysine]	positive	positive		negative				
C[N+](C)(C)CCCC[C@H](N)C(=O)O [Nε-Me3-L-lysine]	negative	negative	negative	negative				
COC(=O)[C@@H](N)CCCCN [L-lysine methyl ester]	negative	negative	negative	negative				
NC(=O)NCCC[C@H](N)C(=O)O [L-citrulline]	negative	negative	negative	negative				
NCCCCN [Putrescine]					negative	negative	negative	negative
NCCCCCN [Cadaverine]	negative	negative	negative	negative				
NCCC[C@H](N)CC(=O)O [β-L-lysine]	negative	negative	negative	negative				
